Literature values as cited in US20070025948A1, “Dilution-type sterilizer composition” (Dainippon Sumitomo Pharma Co. Ltd, priority 2003, published 2007).
Where a name gives a salt, the structure may show the parent alone. Read-outs that look alike come from different tables or passages of the source.

What was measured:
[1] = 20° C.
[2] = hydrophilic-lipophilic balance, from new Surfactant Handbook

Row | SMILES | solubility in water [1] | HLB [2] | other results
1 | [H]/N=C(\N/C(=N/[H])NCCCCCCNC(=N)NC(=N)Nc1ccc(Cl)cc1)Nc1ccc(Cl)cc1 [chlorhexidine hydrochloride] |  |  | solubility in water ([1]; hydrochloride): 0.06 w/v %
2 | [H]/N=C(\N/C(=N/[H])NCCCCCCNC(=N)NC(=N)Nc1ccc(Cl)cc1)Nc1ccc(Cl)cc1 [chlorhexidine gluconate] | not less than 50 w/v % |  | 
3 | [H]/N=C(\N/C(=N/[H])NCCCCCCNC(=N)NC(=N)Nc1ccc(Cl)cc1)Nc1ccc(Cl)cc1 [Chlorhexidine] | 0.08 w/v % |  | 
4 | CCCCCCCCCCCCCCCCCC(=O)[O-].[Na+] [sodium stearate] |  | 18 | 
5 | CCCCCCCCCCCCOS(=O)(=O)[O-].[Na+] [sodium lauryl sulfate] |  | ~40 | 
